For assay [1], the target named is C-X-C chemokine receptor type 4 (Homo sapiens) (UniProt P61073). Put plainly: Inhibition of human CXCR4-mediated chemotaxis expressed in mouse 300-19 Pre-B cells assessed as reduction in CXCL12-induced cell migration at 100 uM. The format is functional, cell-based.
The target is the same in assay [2]. Put plainly: Inhibition of human CXCR4-mediated chemotaxis expressed in mouse 300-19 Pre-B cells assessed as reduction in CXCL12/HMGB1-induced cell migration at 100 uM. Type of assay: functional, cell-based.
Assay [3] shares this target. Put plainly: Inhibition of human CXCR4-mediated chemotaxis expressed in human monocytes assessed as reduction in CXCL12-induced cell migration at 100 uM. The format is functional, cell-based. The following applies: Monocyte.
Assay [4] has as its target Toll-like receptor 4 (Homo sapiens) (UniProt O00206). Put plainly: Inhibition of HMGB1 binding to TLR4 in human monocytes assessed as reduction in HMGB1-induced TNF production at 100 uM by cytometric bead array. Type of assay: cell-based. The following applies: Monocyte.
Assay [5] concerns the target C-X-C chemokine receptor type 4 (Homo sapiens) (UniProt P61073). Put plainly: Inhibition of human CXCR4-mediated chemotaxis expressed in mouse 300-19 Pre-B cells assessed as reduction in CXCL12/HMGB1-induced cell migration at 50 uM. Type of assay: functional, cell-based.
For assay [6] the target is unchanged. Put plainly: Inhibition of human CXCR4-mediated chemotaxis expressed in human monocytes assessed as reduction in CXCL12/HMGB1-induced cell migration at 100 uM. The following applies: Monocyte. Type of assay: functional, cell-based.
For assay [7], the target named is Toll-like receptor 4 (Homo sapiens) (UniProt O00206). Put plainly: Inhibition of HMGB1 binding to TLR4 in human monocytes assessed as reduction in HMGB1-induced IL-6 production at 100 uM by cytometric bead array. The following applies: Monocyte. The format is cell-based.
Chain of Toll-like receptor 4 (Homo sapiens) (O00206 whole entry): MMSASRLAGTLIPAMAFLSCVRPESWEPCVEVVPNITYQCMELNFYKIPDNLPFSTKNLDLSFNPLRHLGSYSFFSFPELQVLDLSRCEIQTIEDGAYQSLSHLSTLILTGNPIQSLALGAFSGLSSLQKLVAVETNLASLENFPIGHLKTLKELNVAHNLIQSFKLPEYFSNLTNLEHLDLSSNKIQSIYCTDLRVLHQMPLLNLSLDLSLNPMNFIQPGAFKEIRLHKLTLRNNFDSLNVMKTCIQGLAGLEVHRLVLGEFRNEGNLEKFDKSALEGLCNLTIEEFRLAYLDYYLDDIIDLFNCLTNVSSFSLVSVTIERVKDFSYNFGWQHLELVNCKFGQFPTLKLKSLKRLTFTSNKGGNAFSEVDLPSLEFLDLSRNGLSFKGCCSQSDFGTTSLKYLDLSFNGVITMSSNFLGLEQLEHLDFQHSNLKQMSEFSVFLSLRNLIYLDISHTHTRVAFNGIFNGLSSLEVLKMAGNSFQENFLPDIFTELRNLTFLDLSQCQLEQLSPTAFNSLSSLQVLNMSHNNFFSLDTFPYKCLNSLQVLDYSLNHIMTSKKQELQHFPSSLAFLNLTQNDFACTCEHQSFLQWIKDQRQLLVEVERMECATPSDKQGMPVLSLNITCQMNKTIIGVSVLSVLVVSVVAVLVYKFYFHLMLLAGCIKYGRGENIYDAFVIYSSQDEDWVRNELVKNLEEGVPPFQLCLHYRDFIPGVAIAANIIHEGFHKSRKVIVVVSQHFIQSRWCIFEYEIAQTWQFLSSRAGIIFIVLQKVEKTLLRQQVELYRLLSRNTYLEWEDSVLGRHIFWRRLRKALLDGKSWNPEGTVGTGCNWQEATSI
Assay [8] deals with T1, High mobility group protein B1 (Homo sapiens, UniProt P09429).
T1 sequence (P09429 whole entry): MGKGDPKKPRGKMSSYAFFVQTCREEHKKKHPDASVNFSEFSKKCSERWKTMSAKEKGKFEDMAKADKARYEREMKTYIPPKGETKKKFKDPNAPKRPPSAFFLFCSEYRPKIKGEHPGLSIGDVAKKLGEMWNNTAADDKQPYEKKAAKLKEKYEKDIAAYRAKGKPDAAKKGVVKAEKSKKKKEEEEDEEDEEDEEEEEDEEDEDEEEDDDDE
Put plainly: Binding affinity to full-length N-terminal 6His-tagged HMGB1 (unknown origin) by NMR spectra.

In assay [9] the target is T1, High mobility group protein B1. Put plainly: Binding affinity to 6His-tagged HMGB1 (unknown origin) incubated for 15 mins by MST analysis.
Assay [10] deals with C-X-C chemokine receptor type 4 (Homo sapiens) (UniProt P61073). Kind of assay: Inhibition of human CXCR4-mediated chemotaxis expressed in mouse 300-19 Pre-B cells assessed as reduction in CXCL12/HMGB1-induced cell migration at 200 uM. Type of assay: functional, cell-based.

Active and inactive are the calls of the source. No cut-off for these calls is given here.

Chain of C-X-C chemokine receptor type 4 (Homo sapiens) (P61073 whole entry): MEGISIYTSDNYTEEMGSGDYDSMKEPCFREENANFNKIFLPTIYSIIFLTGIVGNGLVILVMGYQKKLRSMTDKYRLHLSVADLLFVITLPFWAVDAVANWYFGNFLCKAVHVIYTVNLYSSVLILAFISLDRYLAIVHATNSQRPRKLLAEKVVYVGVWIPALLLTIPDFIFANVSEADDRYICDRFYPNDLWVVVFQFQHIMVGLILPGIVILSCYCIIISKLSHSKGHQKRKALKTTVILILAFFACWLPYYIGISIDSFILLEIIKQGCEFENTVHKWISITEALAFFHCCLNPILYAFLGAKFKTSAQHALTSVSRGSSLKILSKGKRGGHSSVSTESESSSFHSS

One may read the inhibition as the change of the read-out against control, counted positive when it falls. H-YHICWYGDY-OH: the inhibition entry in assay [1] and in assay [2] was “Active” throughout.
In the case of H-GYHYERWIH-OH, the inhibition result in assay [3], in assay [4], in assay [1] and in [7] was “inactive” throughout. For the same compound, in [5], the inhibition is 50%. The inhibition entry in assay [6] and in assay [2] was “Active” throughout.
By Kd is commonly meant a measure of binding affinity in units of concentration. `O=C(O)c1cc(-c2ccc(F)cc2F)ccc1O` [DIFLUNISAL] returned a Kd in assay [8] of 1600 µM.
Consider H-ERWIH-OH, for which, in assay [9] (read-out: Kd), the Kd worked out at 160 µM.
In the case of H-WISNWILMW-OH, the inhibition result in assay [1] and in assay [2] was “Active” each time.
In the case of `CC1(C)[C@@H](O[C@H]2O[C@H](C(=O)O)[C@@H](O)[C@H](O)[C@H]2O[C@@H]2O[C@H](C(=O)O)[C@@H](O)[C@H](O)[C@H]2O)CC[C@]2(C)[C@H]3C(=O)C=C4[C@@H]5C[C@@](C)(C(=O)O)CC[C@]5(C)CC[C@@]4(C)[C@]3(C)CC[C@@H]12`, the inhibition result in [10] is “Active”.
For the compound H-GYHYE-OH, the Kd result in [9] was “Not Active”.
In the case of H-HWTLANWCR-OH, the inhibition entry in assay [1] was “inactive”. In addition, in assay [2], the inhibition result is “Active”.

(Values after ChEMBL document CHEMBL4831529, “Systematic Development of Peptide Inhibitors Targeting the CXCL12/HMGB1 Interaction” (J Med Chem, 2021).)
